Results published in publication PMC11651181, “Discovery of 6α-Thiazolylcarboxamidonaltrexamine Derivative (NTZ) as a Potent and Central Nervous System Penetrant Opioid Receptor Modulator with Drug-like Properties for Potential Treatment of Opioid Use Disorder” (ACS Pharmacology & Translational Science, 2024).
Structures can show the parent of a compound that is named as a salt. Where two headings read alike, the source gives them in different places.

Experiments:
hERG potassium channel = hERG potassium channel (Homo sapiens, UniProt Q12809); assay: hERG inhibitory activity assay (automated patch-clamp, CHO-K1 cells)
κ opioid receptor (KOR) = target: T1, κ opioid receptor (KOR) (Mus musculus, UniProt P33534); assay: Competitive radioligand binding assay, KOR
T1 construct: expressed in transfected cells; host or cells: CHO (mKOR-CHO), membrane preparation
Description: The competition binding assay was performed using monoclonal mouse opioid receptors expressed in CHO cell lines (monoclonal human δ opioid receptor was used for the DOR assay).
The bound radioligand was separated using a Brandel harvester. Specific binding to the MOR, KOR, and DOR was calculated by subtracting the binding observed in the presence of 5 μM naltrexone, U50488, and SNC80, respectively, from the binding in their absence. Relative affinity values (IC50) were determined by fitting displacement binding inhibition data to a nonlinear regression model using GraphPad Prism 8.0 (GraphPad Software, San Diego, CA). The % inhibition was calculated using the formula: % inhibition = 100% - [(binding with the tested compound - nonspecific binding)/specific binding] × 100%. The IC50 values were converted to Ki values using the Cheng-Prusoff equation: Ki = IC50/ [1 + ([L*]/KD)], where [L*] is the concentration of the radioligand and KD is the KD of the radioligand.[68]

[1] = In vivo BBB-penetration studies (LC-MS/MS of brain and plasma); set-up: species or system mouse; details: 10 mg/kg s.c.; for Brain concentration / concentration at 5 min / concentration at 10 min / concentration at 30 min: n = 3, mean ± SD; for concentration at 5 min / concentration at 10 min / concentration at 30 min: subcutaneous
Description: Swiss Webster mice (three mice each time point) were administered compound 6 (10 mg/kg, s.c.) or vehicle. At 5-, 10-, and 30 min time points post administration, the mice were euthanized by decapitation, and blood and brain samples were collected. Blood samples were centrifuged at 15,000 g for 10 min at 4 °C to isolate plasma. Brains were washed twice with saline before harvesting and stored in saline until homogenization. Both brain and plasma samples were kept at −80 °C until further analysis.
Compound 6 was identified and quantified in mouse plasma and brain using a modified version of a previously established method, with naloxone-d5 as the internal standard.[20] In brief, compound 6 was extracted from both blood and brain using naloxone-d5 as the internal standard (ISTD) by a liquid/liquid extraction. Before extraction, brain tissue samples were homogenized at a ratio of one-part tissue to three-parts water. Seven-point calibration curves (10–1000 ng/mL or ng/g) were prepared for in plasma, and included drug free control, negative control (lacking internal standard, ISTD) for plasma and brain, and quality control samples in plasma and brain (30, 300, and 750 ng/mL or ng/g). […], used as the internal standard, was added at a concentration of 10 ng/mL to either 100 μL of blood or 400 μL for brain homogenate to each calibrator, control, or sample, excluding the negative control. To these samples 0.5 mL of saturated carbonate/bicarbonate buffer (1:1, pH 9.5) and 2.0 mL of chloroform: isopropanol (8:2) were added. The mixtures were vortexed, centrifuged and the top aqueous layer was removed. The organic layer was transferred to a clean test tube and evaporated to dryness under nitrogen. The residues were reconstituted in 80:20 methanol: water and transferred to autosampler vials for analysis. Chromatographic separation of compound 6 and naltrexone-d5 was performed using a Shimadzu Nexera X2 liquid chromatography system with a Zorbax XDB-C18 4.6 × 75 mm, 3.5-μm column (Agilent Technologies, Santa Clara, CA). The mobile phase consisted of water with 1 g/L ammonium formate and 0.1% formic acid (Phase A) and methanol (Phase B). The flow rate was maintained at 1 mL/min. The gradient started at 20% B, increased to 80% within 1 min, and was held for 1.5 min before returning to the initial conditions. Detection was carried out using a Sciex 6500 QTRAP system with an IonDrive Turbo V source for TurbolonSpray (Sciex, Ontario, Canada). The curtain gas flow rate set to 30 mL/min while the ion source gases 1 and 2 were set to 60 mL/min. The source temperature was maintained at 650 °C and the ionspray voltage was set at 5500 V. The declustering potential was […]. The following quantification and qualifying transition ions were monitored in positive multiple reaction monitoring (MRM) mode with collisions energies in parentheses: compound 6 455> 437 (26), 455 > 268 & (41); naloxone-d5 333> 212 (45), &333 > 315 (25). Retention times of compound 6 and naloxone-d5 were 1.81 and 1.69 min, respectively. The total run time was 4 min. Compound 6 concentration was determined by linear regression plot based on peak area ratios of the calibrators.

Swiss Webster mice = assay: Warm-water tail immersion assay, antagonism of morphine-induced antinociception
[2] = Plasma protein binding, human; format: in vitro ADME
Description: (§1) The ADMET assessment including the hERG inhibitory activity, plasma protein binding, in vitro metabolic stability profile, CYP inhibitory effect and mutagenic evaluation were conducted by Eurofins Panlabs, Inc.[21],[61],[69]−[71]

CYP1A2 = target: T2, CYP1A2 (Homo sapiens, UniProt P05177); assay: Cytochrome P450 inhibition assay, CYP1A2; format: in vitro ADME
T2 construct: Eurofins Panlabs, Inc. (contract laboratory)
T2 sequence (P05177 1-516): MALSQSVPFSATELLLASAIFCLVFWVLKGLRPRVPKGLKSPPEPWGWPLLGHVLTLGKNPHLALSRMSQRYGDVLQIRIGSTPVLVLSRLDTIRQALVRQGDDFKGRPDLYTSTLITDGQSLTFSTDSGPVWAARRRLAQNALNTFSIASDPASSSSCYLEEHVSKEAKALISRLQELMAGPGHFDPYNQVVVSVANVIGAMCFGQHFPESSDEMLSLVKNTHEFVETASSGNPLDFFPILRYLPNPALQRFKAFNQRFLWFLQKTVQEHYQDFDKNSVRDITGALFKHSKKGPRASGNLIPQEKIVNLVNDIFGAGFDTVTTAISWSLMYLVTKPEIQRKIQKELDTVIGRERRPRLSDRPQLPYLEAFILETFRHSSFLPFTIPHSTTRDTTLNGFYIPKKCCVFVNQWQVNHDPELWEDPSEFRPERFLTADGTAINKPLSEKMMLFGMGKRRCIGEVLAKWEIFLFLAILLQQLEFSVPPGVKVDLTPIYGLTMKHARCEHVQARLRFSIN
Description: as §1

[3] = human, CHO-K1 cells stably expressing hERG

O=C(N[C@H]1CC[C@@]2(O)[C@H]3Cc4ccc(O)c5c4[C@@]2(CCN3CC2CC2)[C@H]1O5)c1nccs1 [Compound 6, 17-Cyclopropylmethyl-3,14β-dihydroxy-4,5α-epoxy-6α-(2′-thiazolylcarboxamido)-morphinan hydrochloride]
IC50 (hERG potassium channel): 7.4 µM
inhibition at 10 nM (hERG potassium channel; [3]): 2.6%
inhibition at 100 nM (hERG potassium channel; [3]): 6%
inhibition at 1 µM (hERG potassium channel; [3]): 18.5%
inhibition at 10 µM (hERG potassium channel; [3]): 55.5%
inhibition at 0.0001 M (hERG potassium channel; [3]): 86.8%
Ki (κ opioid receptor (KOR)): 1.3 ± 0.12 nM
Selectivity κ/μ (κ opioid receptor (KOR); ratio of Ki values): 5
Decrease in the plasma levels over 30 min [1]: 33%
Brain concentration ([1]; 5 min): 0.187 ± 0.07 µg/g
Brain concentration ([1]; 10 min): 0.235 ± 0.06 µg/g
Brain concentration ([1]; 30 min): 0.264 ± 0.05 µg/g
Kp at 5 min ([1]; Swiss Webster, mouse, brain and plasma, sc, 5 min, read-out: Brain-to-Plasma ratio): 0.102
Kp at 10 min ([1]; Swiss Webster, mouse, brain and plasma, sc, 10 min, read-out: Brain-to-Plasma ratio): 0.173
Kp at 0.5 h ([1]; Swiss Webster, mouse, brain and plasma, sc, 30 min, read-out: Brain-to-Plasma ratio): 0.217
concentration at 5 min ([1]; Swiss Webster, mouse, brain, 5 min, read-out: Brain concentration): 187 ng/g
concentration at 10 min ([1]; Swiss Webster, mouse, brain, 10 min, read-out: Brain concentration): 235 ng/g
concentration at 30 min ([1]; Swiss Webster, mouse, brain, 30 min, read-out: Brain concentration): 264 ng/g
concentration at 5 min ([1]; Swiss Webster, mouse, plasma, 5 min, read-out: Plasma concentration): 1820 ± 280 ng/mL
concentration at 10 min ([1]; Swiss Webster, mouse, plasma, 10 min, read-out: Plasma concentration): 1360 ± 210 ng/mL
concentration at 30 min ([1]; Swiss Webster, mouse, plasma, 30 min, read-out: Plasma concentration): 1220 ± 330 ng/mL
AD50 (95% CL) for counteracting morphine-induced antinociception (Swiss Webster mice; mice, s.c., given 5 min before morphine): 0.043 (0.007–0.25) mg/kg
Antagonism of morphine's antinociception, in words (Swiss Webster mice; single dose of 10 mg/kg s.c. in the presence of morphine (10 mg/kg), n = 6): significantly antagonized
fraction unbound [2]: 0.56
inhibition at 10 µM (CYP1A2; 1.0E-05 M): 7.4%
inhibition at 100 nM (CYP1A2; 1.0E-07 M): 11.4%
